The source of these data is US10501443B2, “Pyridone compound as c-met inhibitor” (FUJIAN COSUNTER PHARMACEUTICAL CO., LTD., priority 2016, dated 2019).

The subject of one series is MHCC97H cells. Briefly: Inhibitory effect assay on proliferation (CellTiter-Glo). Format: cell-based. The following applies: Homo sapiens, 72 h, MHCC97-H, 3 days incubation, read-out: MHCC97H cell IC50. The source says: Assay 2: Inhibitory Effect Assay on Proliferation
(§1) Reagents and Consumables:
1) Cell culture: DMEM cell medium, fetal bovine serum, DPBS
3) Detection reagent: live cell detection kit CellTiter-Glo
4) Other major consumables and reagents: compound dilution plate, intermediate plate, test plate, DMSO
The amount of ATP directly reflects the number of cells and the state of the cells, thus the number of living cells could be directly detected by quantitatively measuring ATP. The live cell assay kit contains luciferase and its substrate. With the presence of ATP, a stable optical signal would be emitted by the luciferase catalyzed substrate. Thus the amount of ATP in the cell could be determined by detecting the intensity of the signal. The light signal was proportional to the amount of ATP in the cell, while the ATP was positively correlated with the number of living cells, so that the proliferation in the cell could be detected. The assay plate used was analyzed by Envision from PE Corporation.
1. Preparation of the Cell Plates
MHCC97-H cells were seeded separately into 384-well plates, each of the well contains 500 cells. The cell plates were placed and incubated in a carbon dioxide incubator overnight.
2. Preparation of the compound.
Echo was used for 4-time dilution and 9 concentration was prepared, ready for double duplicate wells assay.
3. Compound Treatment of Cells
The compounds were transferred to cell plates at a starting concentration of 10 μM. The cell plates were incubated in a carbon dioxide incubator for 3 days.
The […] reagent was added into the cell plates and the plate was incubated at room temperature for 10 mins to stabilize the luminescence signal. PerkinElmer Envision multi-label analyzer was used for readings.
(In ATP-based viability assays light output follows the ATP content of the culture.)

A further series has as its target T1, c-MET enzyme (Homo sapiens, UniProt P08581).
T1 construct: His (6xHis); purchased invitrogen PV3143
Briefly: Binding activity of c-MET enzyme assay (LanthaScreen Eu Kinase Binding Assay). The following applies: cMET 5 nM, Tracer 236 30 nM, 60 mins at 4° C. The method, then:
Assay 1: Binding Activity of c-MET Enzyme Assay
as §1
Eu-Anti-His AB (MAb Anti 6HIS-K)
The binding of tracer agent and antibody and kinase leaded to high FRET standard, while using kinase inhibitor instead of tracer agent would lead to loss of FRET.
1) The antibody Eu-Anti-His AB, enzyme cMET, tracer agent Tracer236 were diluted.
Double duplicate wells were set and each of them 75 nL.

In series [1] the test system is human liver cancer MHCC97H cell xenograft. Briefly: Pharmacodynamics assay of MHCC97H liver cancer cell subcutaneous xenograft tumor model. Format: in vivo, BALB/c nude mice. The following applies: for Tumor volume (24th day): 24th day after administration, average ± SEM; for T/C / TGI: based on 24th day tumor volume. As for the experimental part: Assay 3: Pharmacodynamics Assay of MHCC97H Liver Cancer Cell Subcutaneous Xanograft Tumor Model
MHCC97H cells were cultured in a single layer in-vitro. The culturing condition was RPMI1640 medium supplemented with 10% heat-inactivated fetal bovine serum, 1% penicillin-streptomycin double antibody under 37° C., 5% carbon dioxide. Digestion and passage treatment with trypsin-EDTA was done twice a week. When the cells are in the exponential growing phase, the cells were collected, counted and inoculated.
BALB/c nude mice, male. 6-8 weeks old, weighting 18-22 g.
0.2 mL of a cell suspension containing 5×10^6 MHCC97H was subcutaneously inoculated into the right back of each mouse. Drugs were administrated by group after the average tumor volume reached approximately 172 mm^3.
Aim of the assay: investigation of whether the tumor growth was inhibited, delayed or cured. The diameters of the tumor was measured twice a week using vernier calipers. The formula for calculating the tumor volume is V=0.5a×b2, and a and b represent the long and short diameters of the tumor respectively. The antitumor effect (TGI) of the compounds was evaluated by T-C (days) and T/C (%).

The conditions of series [2]: in words, prior art section; cited from earlier work.
The subject of the next series is MHCC97H cell. The following applies: read-out: MHCC97H cell IC50; prior art section; cited from earlier work.
Series [3] can be described thus: t1/2 of liver particle metabolism, rat. Format: in vitro ADME. The following applies: liver particle (liver microsomes).
The nature of series [4]: t1/2 of liver particle metabolism, mice. Format: in vitro ADME. The following applies: mouse, liver particle (liver microsomes).
Series [5] is described as follows: t1/2 of liver particle metabolism, human. Format: in vitro ADME. The following applies: liver particle (liver microsomes). For orientation: Liver microsomes are a subcellular fraction often used to study metabolism.

T1 sequence (P08581 956-1390 limits assumed): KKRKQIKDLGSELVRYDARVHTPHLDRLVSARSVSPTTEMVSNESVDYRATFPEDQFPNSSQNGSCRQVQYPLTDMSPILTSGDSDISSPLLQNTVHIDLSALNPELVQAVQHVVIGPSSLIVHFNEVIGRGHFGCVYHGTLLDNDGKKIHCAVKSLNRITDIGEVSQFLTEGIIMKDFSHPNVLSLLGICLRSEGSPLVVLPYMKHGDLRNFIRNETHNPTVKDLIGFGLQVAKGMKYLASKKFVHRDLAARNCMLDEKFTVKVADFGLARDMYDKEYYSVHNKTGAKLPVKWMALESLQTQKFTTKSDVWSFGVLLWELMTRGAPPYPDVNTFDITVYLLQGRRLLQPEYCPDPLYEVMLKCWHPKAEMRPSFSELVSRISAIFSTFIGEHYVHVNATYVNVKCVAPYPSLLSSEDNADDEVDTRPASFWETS

For `Cc1cc(-c2ccc(=O)n(Cc3cccc(-c4ncc(OCC5CCN(C)CC5)cn4)c3)c2)sn1` [Embodiment 11], the IC50 worked out at 93.8 nM in the series on MHCC97H cells and 5 nM on c-MET enzyme.
In the case of `Cc1cc(-c2cc(F)c(=O)n(C(C)c3cccc(-c4ncc(OCC5CCN(C)CC5)cn4)c3)c2)sn1` (centres unmarked) [Embodiment 2-2], the 50% inhibitory concentration (IC50) in the series on MHCC97H cells came to 13.8 nM; at c-MET enzyme it was 9.33 nM.
For `CN1CCC(COc2cnc(-c3cccc(Cn4nc(-c5cccc(C#N)c5)ccc4=O)c3)nc2)CC1` [Tepotinib, reference compound], in series [1], the “Tumor volume (24th day)” value turned out to be 255 ± 5 mm^3, the T/C amounted to 12.4% and the TGI is listed as 95.6%. Moreover, in series [2], the “clearance rate in vivo” value is reported as “high clearance rate in vivo” and the metabolic stability result was “low metabolic stability”. In addition, the IC50 with MHCC97H cell is 6.2 nM.
Take `CN1CCC(COc2cnc(-c3cccc(Cn4cc(-c5cc(C#N)ccc5F)ccc4=O)c3)nc2)CC1` [Embodiment 4]: the IC50 in the series with MHCC97H cells turned out to be 72.9 nM; at c-MET enzyme, 6.16 nM.
For `CN1CCC(COc2cnc(-c3cccc(Cn4cc(-c5cc(C#N)ccn5)ccc4=O)c3)nc2)CC1` [Embodiment 6], in that order: 32.9 nM and 4.37 nM.
On to `CN1CCC(COc2cnc(-c3cccc(Cn4cc(-c5cc(C#N)ccn5)cc(F)c4=O)c3)nc2)CC1` [Embodiment 7], for which the IC50 with MHCC97H cells was 22.3 nM; on c-MET enzyme, 15.5 nM.
Turning to `Cc1cc(-c2cc(F)c(=O)n([C@H](C)c3cccc(-c4ncc(OCC5CCN(C)CC5)cn4)c3)c2)on1` (single isomer, unassigned) [Embodiment 8-2], in series [1], the “Tumor volume (24th day)” value is 161 ± 6 mm^3, the T/C amounted to 7.8% and the TGI was 100.6%. In addition, the IC50 on c-MET enzyme was found to be 3.79 nM.
As to `Cc1cc(-c2ccc(=O)n([C@H](C)c3cccc(-c4ncc(OCC5CCN(C)CC5)cn4)c3)c2)sn1` [Embodiment 3-2], the IC50 with MHCC97H cells stood at 19 nM.
`CN1CCC(COc2cnc(-c3cccc(Cn4cc(-c5cnn(C)c5)ccc4=O)c3)nc2)CC1` [Embodiment 10]: the IC50 in the series with MHCC97H cells is 166 nM; at c-MET enzyme, 69.5 nM.
In the case of `Cc1cc(-c2ccc(=O)n(Cc3cccc(-c4ncc(OCC5CCN(C)CC5)cn4)c3)c2)on1` [Embodiment 12], the half-inhibitory concentration (IC50) in the series with MHCC97H cells was 51.4 nM.
`CC(c1cccc(-c2ncc(OCC3CCN(C)CC3)cn2)c1)n1cc(-c2cc(C#N)ccn2)cc(F)c1=O` (single isomer, unassigned) [Embodiment 1-2] returned a half-life in series [3] of 36.5 min. Further, in series [1], the “Tumor volume (24th day)” value is recorded as 153 ± 12 mm^3, the T/C is reported as 7.4% and the TGI is 101.0%. This compound showed a half-life in series [4] of 49.1 min. This compound had a half-life in series [5] of 62.1 min.
On to `Cc1cc(-c2cc(F)c(=O)n(Cc3cccc(-c4ncc(OCC5CCN(C)CC5)cn4)c3)c2)sn1` [Embodiment 5], for which the IC50 in the series on MHCC97H cells came to 58.8 nM; on c-MET enzyme, 2.9 nM.

A word on the IC50: it is the midpoint of a concentration-inhibition curve. As usually defined, the T/C is the ratio of treated to control. What is called half-life is the time in which the quantity being followed falls by half. Read a low half-life as fast loss.
